Results on 2 compounds are retold here after patent US5480879A, “Quinolonecarboxylic acids” (Bayer Aktiengesellschaft, priority 1992, dated 1996).

Converted amounts (≈) assume the structure as drawn.

Common to all, as to test: MIC in microtitre plates, brain-heart infusion broth
Common to all, as to assay type: cell-based

For test [1], the system named is Escherichia coli Neumann. As to conditions: about 10^5 microorganisms/ml inoculum. From the text:
(§1) The determination of the "minimum inhibitory concentrations" (MIC) was effected in mitrotitre plates using brain-heart infusion broth, with about 10^5 microorganisms/ml being employed as the inoculum.

Test [2] deals with Staphylococcus aureus ICB 25701. As to conditions: ICB25701, about 10^5 microorganisms/ml inoculum.
Source text: as §1

Test [3] has as its system Staphylococcus aureus 133. As to conditions: about 10^5 microorganisms/ml inoculum.
Source text: as §1

The subject of test [4] is Enterococcus faecalis 9790. As to conditions: about 10^5 microorganisms/ml inoculum.
Source text: as §1

Test [5] deals with Klebsiella sp. 63. As to conditions: about 10^5 microorganisms/ml inoculum.
Source text: as §1

In test [6] the test system is Enterococcus faecalis 27101. As to conditions: about 10^5 microorganisms/ml inoculum.
Source text: as §1

Test [7] has as its system Serratia marcescens 16040. The following applies: about 10^5 microorganisms/ml inoculum.
Source text: as §1

The test system of test [8] is Staphylococcus aureus 1756. As to conditions: about 10^5 microorganisms/ml inoculum.
Source text: as §1

Test [9] has as its system Staphylococcus aureus ICB 25768. The following applies: ICB25768, about 10^5 microorganisms/ml inoculum.
Source text: as §1

In the case of `O=C(Cc1ccccc1)N[C@@H]1C(=O)N2C(C(=O)O)=C(CN3CCC[C@H]4CN(c5c(F)cc6c(=O)c(C(=O)O)cn(C7CC7)c6c5Cl)C[C@H]43)CS[C@H]12` [A, 7-[2-([6R,7R ]-2-Carboxy-8-oxo-7-phenylacetylamino-5-thia-1-aza-bicyclo[4.2.0]oct-2-en-3-ylmethyl)-[1S,6S]-2,8-diazabicyclo[4.3.0]non-8-yl]-8-chloro-1-cyclopropyl-6-fluoro-1,4-dihydro-4-oxo-3-quinolinecarboxylic acid], the MIC came to 0.03 µg/mL (≈ 0.0407 µM) in test [1]; 0.25 µg/mL (≈ 0.34 µM) in test [2]; 0.03 µg/mL (≈ 0.0407 µM) in [3]; 0.25 µg/mL (≈ 0.34 µM) in test [4]; 0.125 µg/mL (≈ 0.17 µM) in test [5]; 0.25 µg/mL (≈ 0.34 µM) in [6]. Further, the MIC in test [7] was found to be 4 µg/mL (≈ 5.43 µM); in [8], 0.004 µg/mL (≈ 0.00543 µM); in [9], 2 µg/mL (≈ 2.72 µM).
Consider `O=C(Cc1ccccc1)N[C@@H]1C(=O)N2C(C(=O)O)=C(CN3CCN(c4c(F)cc5c(=O)c(C(=O)O)cn(C6CC6)c5c4Cl)CC3)CS[C@H]12` [B], for which the minimum inhibitory concentration (MIC) in test [1] came out at 0.25 µg/mL (≈ 0.359 µM); in [2], 32 µg/mL (≈ 46 µM); in test [3] it was 0.125 µg/mL (≈ 0.18 µM); in [4] it was 8 µg/mL (≈ 11.5 µM); in test [5] it was 1 µg/mL (≈ 1.44 µM); in [6] it was 8 µg/mL (≈ 11.5 µM). For the same compound, the minimal inhibitory concentration (MIC) in test [7] was found to be 16 µg/mL (≈ 23 µM); in test [8], 0.03 µg/mL (≈ 0.0431 µM); in [9], 128 µg/mL (≈ 184 µM).

The term MIC denotes the lowest concentration that inhibits growth of the organism. A lower MIC goes with greater potency.
